Laboratory results as given in patent US6432987B1, “Substituted N-benzylindol-3-ylglyoxylic acid derivatives having antitumor action” (Zentaris AG, priority 1999, dated 2002).

Test system: tubulin
Assay: tubulin polymerization assay
Assay type: biochemical
Conditions: result in words only
Text: It was possible to show the activity of the present compounds in a tubulin polymerization assay.

Nc1ccc(Cn2cc(C(=O)C(=O)Nc3ccncc3)c3ccccc32)cc1 [Example D-68838, N-(Pyridin-4-yl)-[1-(4-aminobenzyl)indol-3-yl]glyoxyl-amide]
inhibition of the polymerization of tubulin: inhibits the polymerization of tubulin
